According to US20240285661A1, “Inhibitor of Invasion of Virus to Cell” (TOYO SUGAR REFINING CO., LTD., priority 2021, published 2024):

Assays:
pseudo SARS-CoV-2 [1] = assay: microbe, parasite or virus in culture; type: cell-based; conditions: Severe acute respiratory syndrome coronavirus 2, Caco-2 cells, read-out: Inhibition rate of invasion to cell (%)
pseudo SARS-CoV-2 [2] = assay: microbe, parasite or virus in culture; type: cell-based; conditions: Severe acute respiratory syndrome coronavirus 2, A549, concentration 20 nM, read-out: Inhibition rate of invasion to cell (%)

**Q.** For `N=C(N)c1ccc2cc(OC(=O)c3ccc(N=C(N)N)cc3)ccc2c1` [Nafamostat], which inhibition at 0.00016 µM (pseudo SARS-CoV-2 [1]; concentration 0.16 nM) is on record?
**A.** 40.4%

**Q.** And the inhibition at 0.0008 µM (pseudo SARS-CoV-2 [1]; concentration 0.80 nM)?
**A.** 48.9%

**Q.** And the inhibition at 0.1 µM (pseudo SARS-CoV-2 [1]; concentration 100 nM)?
**A.** 76.1%

**Q.** And the inhibition at 0.02 µM (pseudo SARS-CoV-2 [2])?
**A.** 49%
